The target of test [1] is T1, Bifunctional dihydrofolate reductase-thymidylate synthase (Toxoplasma gondii, UniProt Q07422).
T1 sequence (Q07422 whole entry): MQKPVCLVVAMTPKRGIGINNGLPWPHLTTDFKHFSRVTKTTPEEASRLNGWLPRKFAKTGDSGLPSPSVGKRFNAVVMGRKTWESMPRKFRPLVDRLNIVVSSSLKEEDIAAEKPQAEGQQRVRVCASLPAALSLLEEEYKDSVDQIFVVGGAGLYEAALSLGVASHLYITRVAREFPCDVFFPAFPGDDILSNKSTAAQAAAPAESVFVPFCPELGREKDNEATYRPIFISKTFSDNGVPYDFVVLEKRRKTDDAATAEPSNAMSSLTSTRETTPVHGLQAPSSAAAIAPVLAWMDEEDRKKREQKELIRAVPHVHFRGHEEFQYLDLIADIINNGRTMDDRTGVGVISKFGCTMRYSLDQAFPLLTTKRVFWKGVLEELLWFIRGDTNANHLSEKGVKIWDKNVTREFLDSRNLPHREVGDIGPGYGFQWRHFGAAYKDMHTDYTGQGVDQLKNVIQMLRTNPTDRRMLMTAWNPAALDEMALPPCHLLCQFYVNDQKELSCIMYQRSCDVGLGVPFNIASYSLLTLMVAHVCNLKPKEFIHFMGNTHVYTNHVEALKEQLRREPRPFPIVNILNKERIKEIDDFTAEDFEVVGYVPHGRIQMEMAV
Description: (§1) Inhibition of Toxoplasma gondii dihydrofolate reductase.

For test [2], the target named is T2, Dihydrofolate reductase (Pneumocystis carinii, UniProt P16184).
T2 sequence (P16184 whole entry): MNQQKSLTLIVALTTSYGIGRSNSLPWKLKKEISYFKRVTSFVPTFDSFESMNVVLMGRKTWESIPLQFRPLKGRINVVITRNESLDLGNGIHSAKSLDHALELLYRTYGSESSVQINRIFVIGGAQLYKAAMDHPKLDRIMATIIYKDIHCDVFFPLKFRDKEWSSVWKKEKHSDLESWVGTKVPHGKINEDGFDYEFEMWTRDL
Description: (§2) Inhibition of Pneumocystis carinii dihydrofolate reductase.

Test [3] addresses T3, Dihydrofolate reductase (Rattus norvegicus, UniProt Q920D2).
T3 sequence (Q920D2 whole entry): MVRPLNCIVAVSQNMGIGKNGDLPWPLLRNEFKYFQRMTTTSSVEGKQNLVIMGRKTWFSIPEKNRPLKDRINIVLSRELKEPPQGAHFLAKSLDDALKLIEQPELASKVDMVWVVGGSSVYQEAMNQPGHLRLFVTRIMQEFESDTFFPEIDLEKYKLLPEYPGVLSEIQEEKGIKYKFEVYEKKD
Description: (§3) Inhibition of rat liver dihydrofolate reductase.

The target of test [4] is T1, Bifunctional dihydrofolate reductase-thymidylate synthase. The description is as §1. The source holds these as a separate data set.
Test [5] deals with T2, Dihydrofolate reductase. The test is described as §2. The source holds these as a separate data set.
Test [6] deals with T3, Dihydrofolate reductase. The description is as §3. The source holds these as a separate data set.

The structures appear in SMILES notation. Where “and” joins values, the source holds several entries; their conditions need not be identical. Equal entries are not always repeated.

As to `Nc1nc(N)c2cc(NCc3cccc4ccccc34)ccc2n1`, the IC50 was 99 nM in test [1]; 720 nM in test [2]; 190 nM in test [3]; 99 nM in test [4]; 720 nM in test [5]; 190 nM in test [6].
Turning to `COc1cc(NNCc2cnc3nc(N)nc(N)c3c2C)c(-n2cccc2)cc1OC`, the IC50 in test [1] was 600 nM; in test [3], 3500 nM; in test [4], 600 nM; in test [6] it was 3500 nM.
For the compound `Nc1nc(N)c2nc(CNc3cccc4ccccc34)ccc2n1`, the IC50 in test [2] and in test [5] was 230 nM throughout.
Regarding `Nc1nc(N)c2nc(CNc3ccc(Cl)c(Cl)c3)ccc2n1`, the IC50 in test [2] and in test [5] was 410 nM in each case.
On to `COc1ccc(-c2ccccc2)cc1NNCc1cnc2nc(N)nc(N)c2c1C`, for which the half-inhibitory concentration (IC50) in test [1] is 68 nM; in test [2], 64 nM; in test [3] it was 440 nM; in test [4] it was 68.1 nM; in test [5] it was 64 nM; in test [6], 440 nM.
Take `Nc1nc(N)c2nc(CSc3cccc4ccccc34)ccc2n1`: the IC50 in test [2] is 470 nM; in test [3] it was 252 nM; in test [5] it was 470 nM.
With `COc1cc(-n2ccc3c4c(N)nc(N)nc4nc(=O)c-3c2)cc(OC)c1OC`, the concentration for half-maximal inhibition (IC50) in test [1] is 240 nM and 52 nM; in test [2] it was 4280 nM; in test [3] it was 1120 nM; in test [4] it was 240 nM and 52 nM; in test [5] it was 4280 nM; in test [6], 1120 nM.
With `COc1ccc(OC)c(N(C)Cc2ccc3nc(N)nc(N)c3n2)c1`, the IC50 in test [1] is 250 nM; in test [2], 210 nM; in test [5] it was 210 nM.
On to `Nc1nc(N)c2nc(CNc3ccc4ccccc4c3)ccc2n1`, for which the IC50 in test [2] and in test [5] was 1600 nM in each case.
With `Nc1nc(N)c2nc(CNc3cccc(Cl)c3)ccc2n1`, the IC50 in test [2] and in test [5] was 2000 nM in each case.
Consider `CN(Cc1ccc2nc(N)nc(N)c2n1)c1ccc(Cl)cc1Cl`, for which the IC50 in test [2] and in test [5] was 500 nM each time.
For the compound `COc1ccc(N(C)Cc2ccc3nc(N)nc(N)c3n2)c(OC)c1`, the IC50 in test [2] and in test [5] was 160 nM in each case.
With `COc1cc(CN(C)c2cnc3nc(N)nc(N)c3c2)cc(OC)c1`, the IC50 in test [1] and in test [4] was 31 nM each time.
Regarding `Nc1nc(N)c2nc(CNc3ccccc3Cl)ccc2n1`, the IC50 in test [2] and in test [5] was 530 nM in each case.
In the case of `Nc1nc(N)c2nc(CNc3c(Cl)cccc3Cl)ccc2n1`, the IC50 in test [2] and in test [5] was 1000 nM in each case.
Regarding `COc1ccc(NCc2ccc3nc(N)nc(N)c3n2)cc1`, the IC50 in test [2] was 850 nM; in test [5], 849 nM.
Regarding `COc1cc(CN(C)c2ccc3nc(N)nc(N)c3c2)cc(OC)c1`, in test [5], 23.3 nM corresponded to half-maximal inhibition (IC50).
As to `CN(CC1CCc2nc(N)nc(N)c2C1)c1cccc2ccccc12` (configuration not stated), half-maximal inhibition in test [3] (IC50) required 160 nM.
With `Cc1c(C)c(-n2cccc2)c(C)c(C)c1NNCc1cnc2nc(N)nc(N)c2c1C`, the IC50 in test [1] was 75 nM; in test [2], 620 nM; in test [3], 170 nM; in test [4], 75 nM; in test [5], 620 nM; in test [6] it was 170 nM.
Compound `COc1cc(N(C)Cc2cnc3nc(N)nc(N)c3c2C)cc(OC)c1OC` showed an IC50 in test [3] of 7.21 nM.
On to `COc1ccccc1NCc1ccc2nc(N)nc(N)c2n1`, for which the IC50 in test [2] and in test [5] was 2700 nM each time.
On to `COc1ccccc1N(C)Cc1ccc2nc(N)nc(N)c2n1`, for which the concentration for half-maximal inhibition (IC50) in test [2] and in test [5] was 510 nM throughout.
Consider `CN(Cc1ccc2nc(N)nc(N)c2n1)c1ccccc1Cl`, for which the IC50 in test [2] and in test [5] was 210 nM throughout.
Regarding `COc1ccc(NCc2ccc3nc(N)nc(N)c3n2)cc1OC`, the IC50 in test [2] and in test [5] was 900 nM throughout.
In the case of `COc1ccc(NCc2ccc3nc(N)nc(N)c3n2)c(OC)c1`, the IC50 in test [2] and in test [5] was 5500 nM in each case.
In the case of `COc1cc(NCc2ccc3nc(N)nc(N)c3n2)cc(OC)c1OC`, the IC50 in test [2] and in test [5] was 2000 nM throughout.
In test [6], `COc1cc(OC)c(CNc2cnc3nc(N)nc(N)c3c2)c(OC)c1` came in with an IC50 of 1200 nM.
As to `CCN(Cc1cnc2nc(N)nc(N)c2c1C)c1cc(OC)c(OC)c(OC)c1`, the IC50 in test [2] and in test [5] was 497 nM each time.
Consider `CN(Cc1ccc2nc(N)nc(N)c2n1)c1cccc2ccccc12`, for which the concentration for half-maximal inhibition (IC50) in test [2] and in test [5] was 40 nM each time.
Consider `COc1ccc(N(C)Cc2ccc3nc(N)nc(N)c3n2)cc1OC`, for which the results for the IC50 in test [2], in test [3] and in test [5] were 91 nM, 270 nM and 91 nM, respectively.
Regarding `Nc1nc(N)c2nc(CNc3cc(Cl)c(Cl)c(Cl)c3)ccc2n1`, the half-inhibitory concentration (IC50) in test [2] is 660 nM; in test [5] it was 661 nM.
The corresponding values for `COc1ccc(N(C)Cc2ccc3nc(N)nc(N)c3n2)cc1` are 250 nM and 250 nM.
Turning to `CN(Cc1ccc2nc(N)nc(N)c2n1)c1ccc(Cl)c(Cl)c1`, the IC50 in test [2] and in test [5] was 38 nM in each case.
Turning to `CN(Cc1cccc2ccccc12)c1ccc2nc(N)nc(N)c2c1`, the IC50 was 17 nM in test [2]; 17 nM in test [3]; 21 nM in test [4]; 17 nM in test [5]; 17 nM in test [6].
Consider `Nc1nc(N)c2nc(CNc3ccccc3)ccc2n1`, for which the IC50 in test [2] and in test [5] was 1700 nM each time.
For `Nc1nc(N)c2nc(CNc3ccc(Cl)cc3Cl)ccc2n1`, the IC50 in test [2] and in test [5] was 730 nM throughout.
Turning to `COc1cccc(NCc2ccc3nc(N)nc(N)c3n2)c1`, the half-inhibitory concentration (IC50) in test [2] and in test [5] was 1700 nM in each case.
As for `CN(Cc1ccc2nc(N)nc(N)c2n1)c1cc(Cl)ccc1Cl`, the IC50 in test [2] and in test [5] was 150 nM in each case.
For the compound `Nc1nc(N)c2nc(CSc3ccc4ccccc4c3)ccc2n1`, the IC50 in test [2] and in test [5] was 380 nM each time.
For the compound `CN(Cc1ccc2nc(N)nc(N)c2n1)c1cc(Cl)c(Cl)c(Cl)c1`, the 50% inhibitory concentration (IC50) in test [2] and in test [5] was 250 nM in each case.
As to `Nc1nc(N)c2nc(CSc3ccccc3)ccc2n1`, the IC50 in test [2] and in test [5] was 2000 nM each time.
On to `COc1ccc(OC)c(NCc2ccc3nc(N)nc(N)c3n2)c1`, for which the IC50 in test [2] and in test [5] was 4400 nM in each case.
For `CN(Cc1ccc2nc(N)nc(N)c2n1)c1c(Cl)cccc1Cl`, the IC50 in test [2] and in test [5] was 170 nM in each case.
Compound `COc1cc(C(C)Nc2cnc3nc(N)nc(N)c3c2)cc(OC)c1OC` (configuration not stated) gave an IC50 in test [4] of 182 nM.
Regarding `Nc1nc(N)c2nc(CNc3cc(Cl)ccc3Cl)ccc2n1`, the IC50 in test [2] and in test [5] was 1600 nM each time.
Consider `CN(Cc1ccc2nc(N)nc(N)c2n1)c1ccc2ccccc2c1`, for which the IC50 in test [2] and in test [5] was 52 nM each time.
`COc1cccc(N(C)Cc2ccc3nc(N)nc(N)c3n2)c1`: the IC50 in test [2] and in test [5] was 97 nM each time.
Turning to `CN(Cc1ccc2nc(N)nc(N)c2n1)c1ccccc1`, the half-inhibitory concentration (IC50) is 0.84 nM in test [1], 290 nM in test [2] and 290 nM in test [5].
In turn, `COc1cc(N(C)CC2CCc3nc(N)nc(N)c3C2)cc(OC)c1OC` (configuration not stated) showed an IC50 in test [6] of 38 nM.

What is called IC50 is the concentration at which inhibition is half-maximal. Low values mean greater potency in that assay, high ones weaker potency in that assay.

(Values after ChEMBL document CHEMBL1145190, “CoMFA and CoMSIA analyses of Pneumocystis carinii dihydrofolate reductase, Toxoplasma gondii dihydrofolate reductase, and rat liver dihydrofolate reductase” (J Med Chem, 2005).)
